# Earlier results in PubChem BioAssay AID1259409 (Chemical Carcinogenesis Research Information System (CCRIS), 2018).
# “And” between values parts separate entries of the source, which are not always exact repeats. Identical values can stand only once.
# System: rodent chemically induced tumor inhibition, incidence and multiplicity
# Assay: CCRIS tumor inhibitor studies
compound,measurement,setting,value
NC(Cc1c[nH]c2ccccc12)C(=O)O (stereo not given),"tumour outcome (control, treated, inhibition, significance)","Carcinogen: N-BUTYL-N-(4-HYDROXYBUTYL)NITROSAMINE, 3817-11-6, Dose [Inhibitor]: 5% DIET DAILY FOR 34 WK STARTING AT COMPLETION OF CARCINOGEN TREATMENT (STUDY DURATION: 38 WK), Route [Inhibitor]: ORAL, Species: RAT, Strain/Sex: F344/MALE, Target Tissue: Type of Lesion: URINARY BLADDER: PAPILLOMA, Dose [Carcinogen]: 0.01% IN DRINKING WATER FOR 4 WK, Promoter: NONE USED","33%, 27%, 18%, not significant"
CCc1cccc2c3c([nH]c12)C(CC)(CC(=O)O)OCC3 (stereo not given),"tumour outcome (control, treated, inhibition, significance)","Carcinogen: N-NITROSOBIS(2-HYDROXYPROPYL)AMINE, 53609-64-6, Dose [Inhibitor]: 0, 0.015% IN DIET FOR 8 WK BEGINNING POST CARCINOGEN TREATMENT (STUDY DURATION: 20 WK), Route [Inhibitor]: ORAL, Species: RAT, Strain/Sex: WISTAR/MALE, Target Tissue: Type of Lesion: LUNG: ADENOCARCINOMA, Dose [Carcinogen]: 2,000 PPM IN DRINKING WATER FOR 12 WK, Promoter: NONE","60%, 46%, 23%, not calculated"
same,"tumour outcome (control, treated, inhibition, significance)","Carcinogen: N-NITROSOBIS(2-HYDROXYPROPYL)AMINE, 53609-64-6, Dose [Inhibitor]: 0, 0.015% IN DIET FOR 8 WK BEGINNING POST CARCINOGEN TREATMENT (STUDY DURATION: 20 WK), Route [Inhibitor]: ORAL, Species: RAT, Strain/Sex: WISTAR/MALE, Target Tissue: Type of Lesion: LUNG: SQUAMOUS CELL CARCINOMA, Dose [Carcinogen]: 2,000 PPM IN DRINKING WATER FOR 12 WK, Promoter: NONE","20%, 0%, 100%, not calculated"
same,"tumour outcome (control, treated, inhibition, significance)","Carcinogen: N-NITROSOBIS(2-OXOPROPYL)AMINE [60599-38-4], Dose [Inhibitor]: 10 MG/KG BW ORALLY 3X A WEEK FOR 18 WK (STUDY DURATION: 22 WK), Route [Inhibitor]: ORAL, Species: HAMSTER, Strain/Sex: SYRIAN GOLDEN/FEMALE WITH BILIOENTEROSTOMY, Target Tissue: Type of Lesion: BILE DUCT: ADENOMA, Dose [Carcinogen]: 10 MG/KG BW EVERY 2 WK FOR 18 WK (STUDY DURATION: 22 WK)","15/17 (88%), 11/18 (61%), 31%, not significant"
same,"tumour outcome (control, treated, inhibition, significance)","Carcinogen: N-NITROSOBIS(2-OXOPROPYL)AMINE [60599-38-4], Dose [Inhibitor]: 10 MG/KG BW ORALLY 3X A WEEK FOR 18 WK (STUDY DURATION: 22 WK), Route [Inhibitor]: ORAL, Species: HAMSTER, Strain/Sex: SYRIAN GOLDEN/FEMALE WITH BILIOENTEROSTOMY, Target Tissue: Type of Lesion: BILE DUCT: CARCINOMA, Dose [Carcinogen]: 10 MG/KG BW EVERY 2 WK FOR 18 WK (STUDY DURATION: 22 WK)","15/17 (88%), 6/18 (33%), 63%, p< 0.01"
CC1=C(/C=C/C(C)=C/C=C/C(C)=C\C(=O)Nc2ccc(OC(=O)C(C)(C)C)cc2)C(C)(C)CCC1,"tumour outcome (control, treated, inhibition, significance)","Carcinogen: N-NITROSOBIS(2-OXOPROPYL)AMINE, 60599-38-4, Dose [Inhibitor]: 0.25 MMOL/KG DIET FOR 364 D STARTING 2 WK AFTER LAST CARCINOGEN DOSE (STUDY DURATION: 55 WK), Route [Inhibitor]: ORAL, Species: HAMSTER, Strain/Sex: SYRIAN/FEMALE, Target Tissue: Type of Lesion: LIVER: CARCINOMA, Dose [Carcinogen]: 20 MG/KG INJECTION GIVEN TWICE 1 WK APART, Promoter: NONE USED","7%, 10%, -43%, not calculated"
same,"tumour outcome (control, treated, inhibition, significance)","Carcinogen: N-NITROSOBIS(2-OXOPROPYL)AMINE, 60599-38-4, Dose [Inhibitor]: 0.25 MMOL/KG DIET FOR 364 D STARTING 2 WK AFTER LAST CARCINOGEN DOSE (STUDY DURATION: 55 WK), Route [Inhibitor]: ORAL, Species: HAMSTER, Strain/Sex: SYRIAN/MALE, Target Tissue: Type of Lesion: LIVER: CARCINOMA, Dose [Carcinogen]: 20 MG/KG INJECTION GIVEN TWICE 1 WK APART, Promoter: NONE USED","5%, 25%, -400%, not calculated"
same,"tumour outcome (control, treated, inhibition, significance)","Carcinogen: N-NITROSOBIS(2-OXOPROPYL)AMINE, 60599-38-4, Dose [Inhibitor]: 0.25 MMOL/KG DIET FOR 364 D STARTING 2 WK AFTER LAST CARCINOGEN DOSE (STUDY DURATION: 55 WK), Route [Inhibitor]: ORAL, Species: HAMSTER, Strain/Sex: SYRIAN/MALE, Target Tissue: Type of Lesion: PANCREAS: CARCINOMA, Dose [Carcinogen]: 20 MG/KG INJECTION GIVEN TWICE 1 WK APART, Promoter: NONE USED","34%, 14%, 59%, not calculated and 38%, 28%, 26%, not calculated"
same,"tumour outcome (control, treated, inhibition, significance)","Carcinogen: N-NITROSOBIS(2-OXOPROPYL)AMINE, 60599-38-4, Dose [Inhibitor]: 0.5 MMOL/KG DIET FOR 209 D STARTING 2 WK AFTER LAST CARCINOGEN DOSE FOLLOWED BY 0.25 MMOL/KG DIET FOR 117 D WITH INTERMI, Route [Inhibitor]: ORAL, Species: HAMSTER, Strain/Sex: SYRIAN/FEMALE, Target Tissue: Type of Lesion: LIVER: CARCINOMA, Dose [Carcinogen]: 20 MG/KG INJECTION GIVEN TWICE 1 WK APART, Promoter: NONE USED","5%, 19%, -280%, not calculated"
same,"tumour outcome (control, treated, inhibition, significance)","Carcinogen: N-NITROSOBIS(2-OXOPROPYL)AMINE, 60599-38-4, Dose [Inhibitor]: 0.5 MMOL/KG DIET FOR 209 D STARTING 2 WK AFTER LAST CARCINOGEN DOSE FOLLOWED BY 0.25 MMOL/KG DIET FOR 117 D WITH INTERMI, Route [Inhibitor]: ORAL, Species: HAMSTER, Strain/Sex: SYRIAN/FEMALE, Target Tissue: Type of Lesion: PANCREAS: CARCINOMA, Dose [Carcinogen]: 20 MG/KG INJECTION GIVEN TWICE 1 WK APART, Promoter: NONE USED","38%, 27%, 29%, not calculated"
same,"tumour outcome (control, treated, inhibition, significance)","Carcinogen: N-NITROSOBIS(2-OXOPROPYL)AMINE, 60599-38-4, Dose [Inhibitor]: 0.5 MMOL/KG DIET FOR 209 D STARTING 2 WK AFTER LAST CARCINOGEN DOSE FOLLOWED BY 0.25 MMOL/KG DIET FOR 117 D WITH INTERMI, Route [Inhibitor]: ORAL, Species: HAMSTER, Strain/Sex: SYRIAN/MALE, Target Tissue: Type of Lesion: LIVER: HEPATOCELLULAR CARCINOMA, Dose [Carcinogen]: 20 MG/KG INJECTION GIVEN TWICE 1 WK APART, Promoter: NONE USED","7%, 19%, -171%, not calculated"
same,"tumour outcome (control, treated, inhibition, significance)","Carcinogen: N-NITROSOBIS(2-OXOPROPYL)AMINE, 60599-38-4, Dose [Inhibitor]: 0.5 MMOL/KG DIET FOR 209 D STARTING 2 WK AFTER LAST CARCINOGEN DOSE FOLLOWED BY 0.25 MMOL/KG DIET FOR 117 D WITH INTERMI, Route [Inhibitor]: ORAL, Species: HAMSTER, Strain/Sex: SYRIAN/MALE, Target Tissue: Type of Lesion: PANCREAS: CARCINOMA, Dose [Carcinogen]: 20 MG/KG INJECTION GIVEN TWICE 1 WK APART, Promoter: NONE USED","34%, 30%, 12%, not significant"
COc1c(O)cc(C2Oc3c(c(O)cc(O)c3[C@H]3c4c(O)cc(O)cc4O[C@H](c4ccc(O)cc4)[C@@H]3O)C[C@H]2O)cc1O (stereo not given in full),"tumour outcome (control, treated, inhibition, significance)","Carcinogen: DIMETHYLNITROSAMINE [62-75-9], Dose [Inhibitor]: 100 MG/KG BW FOR 3 MO ADMINISTERED BEFORE CARCINOGEN (STUDY DURATION: 12 MO), Route [Inhibitor]: DIET, Species: MOUSE, Strain/Sex: B6C3F1/MALE, Target Tissue: Type of Lesion: LIVER: TUMOR, Dose [Carcinogen]: 5 MG/KG BW 3 X A WK FOR 2 MO, THEN 10 MG/KG 2 X WK FOR 4 WKS AFTER 3 MO OF GSPE","85% (dmn); 60% gspe before dmn, 29%, not calculated"
same,"tumour outcome (control, treated, inhibition, significance)","Carcinogen: DIMETHYLNITROSAMINE [62-75-9], Dose [Inhibitor]: 100 MG/KG BW FOR 9 MO AFTER CARCINOGEN TREATMENT (STUDY DURATION: 12 MO), Route [Inhibitor]: DIET, Species: MOUSE, Strain/Sex: B6C3F1/MALE, Target Tissue: Type of Lesion: LIVER: TUMOR, Dose [Carcinogen]: 5 MG/KG BW 3 X A WK FOR 2 MO, THEN 10 MG/KG 2 X WK FOR 1 MO","85% (dmn); 55% gspe, 35%, not calculated"
same,"tumour outcome (control, treated, inhibition, significance)","Carcinogen: DIMETHYLNITROSAMINE [62-75-9], Dose [Inhibitor]: 100 MG/KG BW FOR DURATION OF EXPERIMENT (STUDY DURATION: 12 MO), Route [Inhibitor]: DIET, Species: MOUSE, Strain/Sex: B6C3F1/MALE, Target Tissue: Type of Lesion: LIVER: TUMOR, Dose [Carcinogen]: 5 MG/KG BW 3 X A WK FOR 2 MO, THEN 10 MG/KG 2 X WK FOR 4 WKS","85% (dmn); 45% gspe, 47%, not calculated"
